Laboratory results: patent US12239640B2, “Use of miloxacin in preparation of medicines for treating and/or preventing diseases with T-type calcium channels as therapeutic target” (SOOCHOW UNIVERSITY, priority 2020, dated 2025)

Columns and labels:
CCI-ION model rats = assay: Facial pain threshold of trigeminal neuropathic pain (CCI-ION) model rats (von Frey); assay type: in vivo, rat; settings: day 14 after model; for effect on facial pain threshold (mechanical hyperalgesia), CCI-ION model: at 3 h
Experimental: Adult healthy male SD rats weighed 200-250 g were used. Before the experiment, the animals were allowed to acclimate to the breeding environment for three days. The rats were anesthetized with 4% chloral hydrate at an injection dose of 1 ml/100 g body weight. The tongue of the anesthetized rat in a supine position was pulled out and to the right to expose the left side of the mouth. At the level of the left maxillary first molar, a longitudinal incision of about 1 cm was cut along the gingival edge of the buccal aspect, and the tissue was bluntly isolated, to carefully expose the infraorbital nerve. The proximal and distal ends of the infraorbital nerve were loosely ligated with 5-0 suture, where the distance between the two ligatures was about 2 mm, and the tension was moderate. […] The process was the same as that in Example 4. It can be seen that CCI-ION can lower the facial pain threshold of rats. • 2. Effect of miloxacin on the facial pain threshold of CCI-ION model rats: 27 CCI-ION model rats obtained by the above method were divided into three groups, each having 9 rats. On day 14 after the CCI-ION model was established, 10 nmol miloxacin was locally injected into the trigeminal ganglion of rats in the first group, 5 nmol miloxacin was locally injected into the trigeminal ganglion of rats in the second group, and the corresponding solvent DMSO was locally injected into the trigeminal ganglion of rats in the third group. After 1 h, 3 h, 6 h, 9 h, 12 h, and 24 h, the facial pain threshold of each group was detected. […] Study on the analgesic mechanism of miloxacin in CCI-ION model rats: On day 14 after the CCI-ION model was established, 2 nmol TTA-P2 was locally injected into the trigeminal ganglion, and then 10 nmol miloxacin was locally injected into the trigeminal ganglion 30 min later, which was used as the TTA-P2 group. The other group was injected with the corresponding solvent DMSO, and then administered with 10 nmol miloxacin by local injection 30 min later, which was used as the solvent group.

[1] = system: CFA-induced inflammatory pain model rats; assay: Facial pain threshold of CFA-induced inflammatory pain model rats (von Frey); assay type: in vivo, rat; settings: day 2 after CFA; for effect on facial pain threshold (mechanical hyperalgesia), CFA model: at 3 h
Experimental: Adult healthy male SD rats weighed 200-250 g were used. Before the experiment, the animals were allowed to acclimate to the breeding environment for three days. The model was established by a routine laboratory method. CFA was injected subcutaneously into the rat's facial whisker pad at a dose of 20 μl/mouse. Individuals with hyperalgesia and swelling of […] on day 2 after CFA injection were used as the experimental subjects, that is, the rats in the experiment group. Before the behavioral test, the rats were housed in a plexiglass box on a wire mesh frame to acclimate to the environment for three consecutive days, for 1 h each time. Test method: The middle part of the whisker pad was stimulated with von Frey filament at 1 g. If there were 3 escapes in 5 consecutive stimulations, the response was positive. Then, the same operation was repeated with von Frey filament at a lower level of intensity. If there was no positive response, the middle part of the whisker pad was stimulated with von Frey filament at a higher level of intensity. The minimum intensity at which a positive response occurs is taken as the facial pain threshold, that is, the facial mechanical pain threshold. It can be seen that CFA induction can lower the facial pain threshold of rats. • 3. Effect of miloxacin on the facial pain threshold of CFA-induced inflammatory pain model rats: 27 rats with CFA-induced inflammation obtained by the above method were divided into three groups, each having 9 rats. On day 2 after CFA induction, 10 nmol miloxacin was locally injected into the trigeminal ganglion of rats in the first group, 5 nmol miloxacin was locally injected into the trigeminal ganglion of rats in the second group, and the corresponding solvent DMSO was locally injected into the trigeminal ganglion of rats in the third group. After 1 h, 3 h, 6 h, 12 h, 18 h, and 24 h, the facial pain threshold of each group was detected. […] Study on the analgesic mechanism of miloxacin in CFA-induced inflammatory pain model rats: On day 2 after CFA induction, 2 nmol TTA-P2 was locally injected into the trigeminal ganglion, and then 10 nmol miloxacin was locally injected into the trigeminal ganglion after 30 min, which was used as the TTA-P2 group. The other group was injected with the corresponding solvent DMSO, and then administered with 10 nmol miloxacin by local injection 30 min later, which was used as the solvent group. TTA-P2 is a T-type calcium channel blocker, and the solvent for TTA-P2 is DMSO.

[2] = target: T1, T-type calcium channel subtype Cav3.1 (Homo sapiens, UniProt O43497); assay: Whole-cell voltage clamp of Cav3.1 current in transfected HEK293 cells; assay type: cell-based
T1 construct: expressed in transfected cells; host or cells: HEK293 cells
Experimental: (§1) 1. Preparation before transfection: A flask of HEK293 cell culture was removed of the culture medium, and gently washed twice by adding 3 ml of a phosphate buffer. Then, the cells were digested by adding 1 ml of 0.25% trypsin, and pipetted by adding DMEM medium after 3-5 min to collect the cells. The cells were centrifuged at 1000 rpm for 5 min, and the supernatant was discarded. 5-10 ml of DMEM medium was added to suspend the cells. The cells were slowly pipetted again, then subcultured in a 35 mm petri dish covered with glass slides, and transfected after 24 h.
(§2) 2. Transfection: The cells were transfected by liposome transfection, where the transfection reagent was Lipofectamine 3000, and the materials used: Cav3 plasmid 1.5 μg, transfection enhancement factor (TAG) 0.25 μg, and enhanced green fluorescent protein (EGFP) 0.1 μg. 48-72 h after transfection, the whole-cell patch clamp technique was used to record fluorescent HEK293 cells, with 9-12 cells per group.
(§3) The base sequences of Cav3.1, Cav3.2 and Cav3.3 plasmids were verified by gene sequencing and confirmed by DNA Star sequence analysis and alignment software that they are respectively consistent with the sequence Nos. NM_198376.3 (Cav3.1), NM_021098.3 (Cav3.2) and NM_021096.4 (Cav3.3) published in the NCBI database.
(§4) At room temperature, Multiclamp700B amplifier was used for whole-cell voltage clamp recording. The glass electrode was a drawn electrode, and the resistance of the electrode filled with intracellular fluid was 3-5 MΩ. DigiData1322A was converted into a digital signal in pClamp10.2 software. The series resistance compensation was 70-80%. The stimulating square wave was depolarized to −30 mV with a clamping voltage of −90 mV, and then returned to the clamping potential level. The current amplitude of the T-type calcium channel at this time was recorded.
(§5) Internal pipette solution: 110 cesium chloride, 4 magnesium-ATP, 0.3 sodium-GTP, 25 HEPES, 10 EGTA. External pipette solution: 5 barium chloride, 140 tetraethylamine chloride, 5 cesium chloride, 0.5 magnesium chloride, 5.5 glucose, 10 HEPES. […]

[3] = target: T2, T-type calcium channel subtype Cav3.3 (Homo sapiens, UniProt Q9P0X4); assay: Whole-cell voltage clamp of Cav3.3 current in transfected HEK293 cells; assay type: cell-based; settings: 10 μM miloxacin, step -90 mV to -30 mV
T2 construct: expressed in transfected cells; host or cells: HEK293 cells
Experimental: as §1
as §2, with “group. […]” for “group.”
At room temperature, Multiclamp700B amplifier was used for whole-cell voltage clamp recording. […] The current amplitude of the T-type calcium channel at this time was recorded. […]

normal rats = assay: Facial pain threshold of normal rats (von Frey); assay type: in vivo, rat; settings: 10 nmol injected into trigeminal ganglion, vs. solvent group
Experimental: Before the behavioral test, the rats were housed in a plexiglass box on a wire mesh frame to acclimate to the environment for three consecutive days, for 1 h each time. Test method: The middle part of the whisker pad was stimulated with von Frey filament at 1 g. If there were 3 escapes in 5 consecutive stimulations, the response was positive. Then, the same operation was repeated with von Frey filament at a lower level of intensity. If there was no positive response, the middle part of the whisker pad was stimulated with von Frey filament at a higher level of intensity. The minimum intensity at which a positive response occurs is taken as the facial pain threshold, that is, the facial mechanical pain threshold. • 1. Effect of miloxacin on the facial pain threshold of normal rats (without CFA induction): 20 normal rats were divided into two groups, each having 10 rats. The first group was a solvent group, and the second group was a treatment group. 10 nmol miloxacin was injected into the trigeminal ganglion of the second group of rats, and the corresponding solvent DMSO was injected into the trigeminal ganglion of the first group of rats.

[4] = system: trigeminal ganglion neurons; assay: Firing of neuronal action potential in acutely dissociated rat trigeminal ganglion neurons (current clamp); assay type: cell-based; settings: 10 μM miloxacin, 180 pA for 1 sec; control 13.3±1.5
Experimental: The process was the same as that in Example 2. At room temperature, Multiclamp 700B amplifier was used for whole-cell current clamp recording. A current of 180 pA was injected into the cell for 1 sec to stabilize the cell at −70 mV, and the frequency of the generated action potential was recorded. Internal pipette solution: 10 sodium chloride, 110 potassium chloride, 2 EGTA, 25 HEPES, 0.5 sodium-GTP, 4 magnesium-ATP. External pipette solution: 2 potassium chloride, 128 sodium chloride, 2 calcium chloride, 2 magnesium chloride, 30 glucose, 25 HEPES. The unit is mM, that is, millimoles/liter. 10 μM miloxacin was directly administered to the T-type calcium channel in the trigeminal ganglion neurons as the treatment group. The groups before miloxacin administration were used as control groups.

T-type calcium channel = T-type calcium channel current in acutely dissociated primary rat trigeminal ganglion neurons; assay type: cell-based
Text: Specifically, trigeminal ganglion neurons from adult male SD rats were acutely dissociated under the conditions of enzymatic hydrolysis of trigeminal ganglion neurons (Zhang Y et al., J Pineal Res, 2018, 64, e12476).
The trigeminal ganglia of male SD rats weighed about 220 g were exposed after anesthesia. The bilateral trigeminal ganglia were taken by using microscopic dissecting forceps, removed of their fiber connections, and then immediately placed in ice-cold oxygenated DMEM medium. The trigeminal ganglion in the culture medium was transferred into 3 mg/ml collagenase digestion solution, cut into pieces with microscissors, and digested at 37° C. for 45 min, and then digested in 2 mg/ml trypsin digestion solution for another 15 min. After the above operations, the digestion was terminated by adding DMEM medium containing 10% fetal bovine serum. The cells were dispersed by repeatedly pipetting, and filtered through a 40 μm cell sieve. The resulting suspension was centrifuged at 800 rpm for 3 min. After centrifugation, the supernatant was discarded, and the cell pellet was resuspended in DMEM medium. After resuspension, the cell suspension was seeded on a cover glass pre-coated with polylysine in a 24-well culture plate, and placed in an incubator at 37° C. with 5% CO2 for later use.
The process was the same as that in Example 1. […]

[5] = target: T3, T-type calcium channel subtype Cav3.2 (Homo sapiens, UniProt O95180); assay: Whole-cell voltage clamp of Cav3.2 current in transfected HEK293 cells; assay type: cell-based
T3 construct: expressed in transfected cells; host or cells: HEK293 cells
Experimental: as §1, §2, §3, §4, §5

[6] = 2 nmol local injection into trigeminal ganglion
[7] = 5 nmol local injection into trigeminal ganglion
[8] = 10 nmol local injection into trigeminal ganglion
[9] = 10 nmol miloxacin 30 min after 2 nmol TTA-P2, trigeminal ganglion
[10] = 10 μM miloxacin, step -90 mV to -30 mV

T3 sequence (O95180 whole entry): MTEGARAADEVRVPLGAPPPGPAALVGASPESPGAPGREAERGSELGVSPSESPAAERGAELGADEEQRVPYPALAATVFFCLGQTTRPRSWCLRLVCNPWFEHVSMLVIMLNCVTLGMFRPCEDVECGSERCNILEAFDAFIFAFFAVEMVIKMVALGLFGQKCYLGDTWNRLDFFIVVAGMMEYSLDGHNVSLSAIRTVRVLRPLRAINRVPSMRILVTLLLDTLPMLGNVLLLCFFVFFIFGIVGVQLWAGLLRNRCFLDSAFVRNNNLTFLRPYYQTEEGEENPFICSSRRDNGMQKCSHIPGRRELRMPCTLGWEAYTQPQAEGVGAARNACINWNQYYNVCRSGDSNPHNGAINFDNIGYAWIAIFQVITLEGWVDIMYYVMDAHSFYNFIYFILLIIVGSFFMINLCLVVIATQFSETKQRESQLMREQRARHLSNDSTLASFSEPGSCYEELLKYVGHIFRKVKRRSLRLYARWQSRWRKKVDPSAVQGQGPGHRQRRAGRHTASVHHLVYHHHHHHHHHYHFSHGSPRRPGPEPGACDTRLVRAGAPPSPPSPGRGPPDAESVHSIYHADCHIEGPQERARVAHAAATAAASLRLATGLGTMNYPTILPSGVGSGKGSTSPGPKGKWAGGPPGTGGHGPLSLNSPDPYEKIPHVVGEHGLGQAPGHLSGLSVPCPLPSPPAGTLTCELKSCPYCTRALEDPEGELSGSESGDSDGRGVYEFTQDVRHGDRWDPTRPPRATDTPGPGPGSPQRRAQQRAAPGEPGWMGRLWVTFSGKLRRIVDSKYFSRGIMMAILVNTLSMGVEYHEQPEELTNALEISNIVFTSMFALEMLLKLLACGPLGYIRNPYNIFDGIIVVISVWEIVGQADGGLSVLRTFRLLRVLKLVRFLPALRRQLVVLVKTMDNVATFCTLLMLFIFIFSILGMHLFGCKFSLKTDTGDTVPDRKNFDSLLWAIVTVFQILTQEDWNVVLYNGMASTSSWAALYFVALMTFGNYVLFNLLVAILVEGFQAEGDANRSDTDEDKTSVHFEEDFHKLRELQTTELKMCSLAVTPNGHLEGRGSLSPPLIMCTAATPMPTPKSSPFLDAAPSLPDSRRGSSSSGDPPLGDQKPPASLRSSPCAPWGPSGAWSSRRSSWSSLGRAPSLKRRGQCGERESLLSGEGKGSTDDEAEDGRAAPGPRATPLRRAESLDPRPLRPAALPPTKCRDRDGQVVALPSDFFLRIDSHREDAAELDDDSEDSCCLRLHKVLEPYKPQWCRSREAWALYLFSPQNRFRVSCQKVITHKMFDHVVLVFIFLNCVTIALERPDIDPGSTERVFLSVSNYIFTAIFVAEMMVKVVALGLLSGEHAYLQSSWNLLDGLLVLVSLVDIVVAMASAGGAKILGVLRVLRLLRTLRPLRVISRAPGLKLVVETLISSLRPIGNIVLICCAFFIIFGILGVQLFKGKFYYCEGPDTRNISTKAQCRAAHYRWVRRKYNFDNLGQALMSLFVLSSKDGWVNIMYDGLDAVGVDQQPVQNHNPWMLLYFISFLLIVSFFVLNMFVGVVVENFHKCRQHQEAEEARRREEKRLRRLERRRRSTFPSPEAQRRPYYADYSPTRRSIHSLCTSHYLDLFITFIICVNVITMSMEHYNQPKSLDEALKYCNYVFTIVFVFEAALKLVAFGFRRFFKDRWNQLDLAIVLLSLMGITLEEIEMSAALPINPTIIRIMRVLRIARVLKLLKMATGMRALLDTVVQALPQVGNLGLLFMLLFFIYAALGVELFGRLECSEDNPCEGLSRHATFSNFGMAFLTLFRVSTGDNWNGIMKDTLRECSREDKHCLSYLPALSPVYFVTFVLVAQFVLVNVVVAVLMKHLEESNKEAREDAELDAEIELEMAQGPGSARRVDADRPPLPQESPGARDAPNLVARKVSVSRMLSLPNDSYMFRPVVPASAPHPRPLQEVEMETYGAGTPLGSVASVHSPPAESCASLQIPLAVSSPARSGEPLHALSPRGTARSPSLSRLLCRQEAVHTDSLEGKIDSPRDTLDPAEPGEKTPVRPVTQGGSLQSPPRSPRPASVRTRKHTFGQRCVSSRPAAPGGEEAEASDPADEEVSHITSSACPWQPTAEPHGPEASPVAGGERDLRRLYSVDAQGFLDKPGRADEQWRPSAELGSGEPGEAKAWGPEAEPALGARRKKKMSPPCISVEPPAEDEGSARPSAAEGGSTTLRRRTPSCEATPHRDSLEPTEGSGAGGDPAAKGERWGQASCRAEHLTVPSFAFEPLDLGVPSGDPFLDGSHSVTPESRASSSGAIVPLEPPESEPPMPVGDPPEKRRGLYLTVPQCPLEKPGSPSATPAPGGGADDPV
T1 sequence (O43497 1-2171 isoform O43497-5): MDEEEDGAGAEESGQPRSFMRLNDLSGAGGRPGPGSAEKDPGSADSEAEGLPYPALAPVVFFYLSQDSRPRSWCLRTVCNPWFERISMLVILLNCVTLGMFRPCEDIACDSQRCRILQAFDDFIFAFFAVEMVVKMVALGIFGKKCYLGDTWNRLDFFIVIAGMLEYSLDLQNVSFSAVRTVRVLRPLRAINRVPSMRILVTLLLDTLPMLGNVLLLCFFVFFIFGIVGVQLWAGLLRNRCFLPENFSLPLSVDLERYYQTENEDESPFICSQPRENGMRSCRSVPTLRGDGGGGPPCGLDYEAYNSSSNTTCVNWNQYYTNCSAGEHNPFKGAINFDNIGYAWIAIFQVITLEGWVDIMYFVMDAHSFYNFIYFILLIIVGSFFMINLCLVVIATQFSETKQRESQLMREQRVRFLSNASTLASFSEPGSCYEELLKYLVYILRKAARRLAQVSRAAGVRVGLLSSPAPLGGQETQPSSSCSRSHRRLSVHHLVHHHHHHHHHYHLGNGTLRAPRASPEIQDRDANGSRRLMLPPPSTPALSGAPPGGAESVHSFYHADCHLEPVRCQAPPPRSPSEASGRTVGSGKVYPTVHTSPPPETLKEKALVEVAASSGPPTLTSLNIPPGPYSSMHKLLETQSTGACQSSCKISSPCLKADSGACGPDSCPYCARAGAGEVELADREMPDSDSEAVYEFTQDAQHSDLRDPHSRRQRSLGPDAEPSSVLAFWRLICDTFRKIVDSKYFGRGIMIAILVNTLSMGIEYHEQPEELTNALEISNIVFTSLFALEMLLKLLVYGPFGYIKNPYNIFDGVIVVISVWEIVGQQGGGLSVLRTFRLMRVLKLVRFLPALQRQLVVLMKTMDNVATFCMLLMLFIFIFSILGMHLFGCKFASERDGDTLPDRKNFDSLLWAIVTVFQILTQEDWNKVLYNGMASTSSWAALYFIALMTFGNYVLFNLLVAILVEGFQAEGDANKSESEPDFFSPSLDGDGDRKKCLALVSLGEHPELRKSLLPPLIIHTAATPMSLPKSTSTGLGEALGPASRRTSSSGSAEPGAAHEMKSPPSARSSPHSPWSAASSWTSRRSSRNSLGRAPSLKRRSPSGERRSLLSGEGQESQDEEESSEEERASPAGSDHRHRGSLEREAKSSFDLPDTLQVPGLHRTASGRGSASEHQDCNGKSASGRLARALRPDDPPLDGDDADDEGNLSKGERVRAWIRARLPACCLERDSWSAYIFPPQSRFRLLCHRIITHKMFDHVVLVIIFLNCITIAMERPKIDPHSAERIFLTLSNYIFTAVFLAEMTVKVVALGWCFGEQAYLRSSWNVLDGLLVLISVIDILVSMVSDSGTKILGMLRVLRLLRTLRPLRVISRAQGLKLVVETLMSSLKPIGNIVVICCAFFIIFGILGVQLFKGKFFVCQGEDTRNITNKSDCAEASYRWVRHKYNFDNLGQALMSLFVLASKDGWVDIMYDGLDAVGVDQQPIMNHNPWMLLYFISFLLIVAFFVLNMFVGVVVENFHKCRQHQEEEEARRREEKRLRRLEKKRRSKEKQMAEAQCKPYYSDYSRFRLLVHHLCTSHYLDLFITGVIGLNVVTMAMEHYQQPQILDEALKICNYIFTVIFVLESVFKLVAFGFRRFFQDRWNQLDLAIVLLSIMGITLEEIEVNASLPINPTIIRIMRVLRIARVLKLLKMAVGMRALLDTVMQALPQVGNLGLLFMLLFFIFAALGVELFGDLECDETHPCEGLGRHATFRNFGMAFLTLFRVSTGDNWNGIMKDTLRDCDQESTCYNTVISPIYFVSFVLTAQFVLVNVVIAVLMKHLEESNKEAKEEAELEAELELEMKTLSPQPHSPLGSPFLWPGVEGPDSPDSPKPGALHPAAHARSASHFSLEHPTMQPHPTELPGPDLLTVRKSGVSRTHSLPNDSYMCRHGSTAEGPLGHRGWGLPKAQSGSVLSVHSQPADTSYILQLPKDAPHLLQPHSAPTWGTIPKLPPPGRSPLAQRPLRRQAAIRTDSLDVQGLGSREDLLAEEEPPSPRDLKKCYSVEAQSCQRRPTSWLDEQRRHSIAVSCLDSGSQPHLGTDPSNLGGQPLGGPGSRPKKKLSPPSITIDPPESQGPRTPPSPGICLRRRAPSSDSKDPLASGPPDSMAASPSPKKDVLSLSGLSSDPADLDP

| inactivation constant V1/2 of subtype Cav3.1, left shift ([2]; 10 μM miloxacin vs. control) | subtype Cav3.1 current reduced compared to control [2, 10] | IC50 ([2]; dose-effect curve) | subtype Cav3.3 current reduced compared to control [3] | IC50 (T-type calcium channel; dose-effect curve) | inactivation constant V1/2 of subtype Cav3.2, left shift ([5]; 10 μM miloxacin vs. control) | subtype Cav3.2 current reduced compared to control [5, 10] | IC50 ([5]; dose-effect curve) | SMILES | effect of TTA-P2 on facial pain threshold, CCI-ION model (CCI-ION model rats; [6]) | effect of TTA-P2 on facial pain threshold, CFA model [1, 6] | effect on facial pain threshold (mechanical hyperalgesia), CCI-ION model (CCI-ION model rats; [7]) | effect on facial pain threshold (mechanical hyperalgesia), CCI-ION model (CCI-ION model rats; [8]) | effect of miloxacin after TTA-P2 on facial pain threshold, CCI-ION model (CCI-ION model rats; [9]) | effect on facial pain threshold of normal rats (normal rats) | action potential (number in a 1-sec stimulation course) [4] | T-type calcium channel current reduced compared to control (T-type calcium channel; 10 μM miloxacin) | effect on facial pain threshold (mechanical hyperalgesia), CFA model [1, 7] | effect on facial pain threshold (mechanical hyperalgesia), CFA model [1, 8] | effect of miloxacin after TTA-P2 on facial pain threshold, CFA model [1, 9] |
| --- | --- | --- | --- | --- | --- | --- | --- | --- | --- | --- | --- | --- | --- | --- | --- | --- | --- | --- | --- |
|  |  |  |  |  |  |  |  | CC1(C)C[C@@H](CN2CCC(F)(CNC(=O)c3cc(Cl)cc(Cl)c3)CC2)CCO1 [TTA-P2, 3,5-dichloro-N-[[4-fluoro-1-[[(4S)-tetrahydro-2,2-dimethyl-2H-pyran-4-yl]methyl]-4-piperidine]methyl]benzamide] | can increase the facial pain threshold | can increase the facial pain threshold |  |  |  |  |  |  |  |  |  |
| 6.5±0.7 mV | 49.6±2.9% | 6.5 ± 0.9 µM | 2.1±0.7% | 7.7 ± 0.6 µM | 8.5±0.3 mV | 57.2±3.3% | 8.2 ± 0.6 µM | COn1cc(C(=O)O)c(=O)c2cc3c(cc21)OCO3 [miloxacin] |  |  | significantly reversed mechanical hyperalgesia | significantly reversed mechanical hyperalgesia | does not further increase the facial pain threshold | does not affect the facial pain threshold | 6.1±0.3 | 52.7±2.6% | significantly reversed mechanical hyperalgesia | significantly reversed mechanical hyperalgesia | does not further increase the facial pain threshold |
